The source of these data is publication PMC5917010, “Structural basis for GPR40 allosteric agonism and incretin stimulation” (Nature Communications, 2018).

The target of data set [1] is T1, human PPARgama (Homo sapiens, UniProt P37231).
T1 sequence (P37231 1-505): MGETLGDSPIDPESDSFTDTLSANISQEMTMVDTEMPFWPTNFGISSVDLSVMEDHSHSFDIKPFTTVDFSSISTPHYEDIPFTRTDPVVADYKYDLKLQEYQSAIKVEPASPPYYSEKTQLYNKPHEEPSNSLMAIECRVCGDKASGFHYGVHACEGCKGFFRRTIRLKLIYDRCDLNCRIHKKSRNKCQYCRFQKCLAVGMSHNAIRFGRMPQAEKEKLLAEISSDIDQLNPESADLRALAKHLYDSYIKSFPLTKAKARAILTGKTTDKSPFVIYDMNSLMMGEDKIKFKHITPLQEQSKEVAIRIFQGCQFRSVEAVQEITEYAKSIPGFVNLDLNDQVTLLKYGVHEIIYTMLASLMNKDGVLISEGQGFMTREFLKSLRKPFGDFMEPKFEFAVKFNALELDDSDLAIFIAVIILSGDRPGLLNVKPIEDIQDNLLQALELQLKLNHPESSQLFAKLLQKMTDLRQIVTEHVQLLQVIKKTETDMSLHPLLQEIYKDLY
The experiment in a line: human PPARgamma binding. As to conditions: Supplementary Table 1.

Data set [2] deals with T2, Mouse GPR120 (Mus musculus, UniProt Q7TMA4).
T2 sequence (Q7TMA4 1-361): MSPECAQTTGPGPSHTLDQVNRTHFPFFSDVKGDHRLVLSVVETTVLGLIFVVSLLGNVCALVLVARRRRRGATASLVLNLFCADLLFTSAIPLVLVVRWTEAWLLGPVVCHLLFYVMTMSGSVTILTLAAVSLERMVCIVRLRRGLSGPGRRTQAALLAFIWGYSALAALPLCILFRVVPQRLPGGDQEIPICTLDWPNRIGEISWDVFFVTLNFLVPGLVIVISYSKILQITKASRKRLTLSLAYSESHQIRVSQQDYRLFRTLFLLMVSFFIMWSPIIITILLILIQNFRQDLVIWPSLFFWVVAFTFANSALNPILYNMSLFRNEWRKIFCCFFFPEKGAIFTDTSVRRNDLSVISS
Nature of the data set: Mouse GPR120 b-arrestin. It counts as cell-based. The conditions noted are these: Supplementary Table 1.

Data set [3] addresses T3, Human GPR120 (Homo sapiens, UniProt Q5NUL3).
T3 sequence (Q5NUL3 1-361): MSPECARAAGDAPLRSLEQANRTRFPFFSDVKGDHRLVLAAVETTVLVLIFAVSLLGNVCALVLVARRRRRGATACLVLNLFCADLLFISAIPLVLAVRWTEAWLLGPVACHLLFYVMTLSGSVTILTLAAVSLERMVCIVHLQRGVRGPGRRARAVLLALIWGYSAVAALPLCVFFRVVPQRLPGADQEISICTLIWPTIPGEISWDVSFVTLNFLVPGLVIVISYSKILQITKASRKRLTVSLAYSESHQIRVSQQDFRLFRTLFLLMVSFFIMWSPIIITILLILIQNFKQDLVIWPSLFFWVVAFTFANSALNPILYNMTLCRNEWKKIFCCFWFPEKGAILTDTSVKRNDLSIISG
Nature of the data set: Human GPR120 Calcium (FLIPR). It counts as cell-based. The conditions noted are these: Supplementary Table 1.

Data set [4] deals with T4, human PPARalpha (Homo sapiens, UniProt Q07869).
T4 sequence (Q07869 1-468): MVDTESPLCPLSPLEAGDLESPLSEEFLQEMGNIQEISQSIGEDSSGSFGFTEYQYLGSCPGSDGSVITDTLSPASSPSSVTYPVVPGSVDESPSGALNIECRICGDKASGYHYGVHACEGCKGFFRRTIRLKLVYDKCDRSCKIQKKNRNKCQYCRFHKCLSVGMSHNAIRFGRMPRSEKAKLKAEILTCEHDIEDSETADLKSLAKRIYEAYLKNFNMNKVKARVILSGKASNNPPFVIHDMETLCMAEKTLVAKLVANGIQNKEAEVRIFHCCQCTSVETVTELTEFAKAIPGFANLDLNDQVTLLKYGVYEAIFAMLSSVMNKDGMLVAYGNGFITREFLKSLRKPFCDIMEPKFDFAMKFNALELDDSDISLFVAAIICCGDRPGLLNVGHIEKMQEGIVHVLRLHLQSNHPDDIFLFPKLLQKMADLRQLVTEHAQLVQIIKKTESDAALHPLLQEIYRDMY
The experiment in a line: human PPARalpha binding. The conditions noted are these: Supplementary Table 1.

The subject of data set [5] is wild type C57BL/6 mice. Nature of the data set: Oral glucose tolerance test (OGTT) in wild type C57BL/6 mice. The format is in vivo, mouse. As for the experimental part: Eight to thirteen week old male C57BL/6 or KO mice were used. The day before the study, at 1600 hours, animals were transferred into clean cages and food was removed. The following morning (~0800 hours), mice were randomized by block randomization to treatment groups (N = 5–7 per group) so each group had similar mean and standard deviation of body weight and blood glucose. […] Animals were dosed with vehicle (0.5% MC/0.25% Tween-80) or the test article by oral gavage. Group allocations were not blinded from the experimenters who collected the data. After 60 min compound treatment animals were then given an oral gavage of glucose (2 g/kg). At 0, 15, 30, 60, and 120 min post oral glucose, two glucose readings via glucometers were obtained. The average of two glucose readings was reported at each time point. Data were expressed as mean±standard error (s.e.m.). Blood glucose values were analyzed using ANOVA with repeated measures. Cook’s distance was also calculated from linear regression. All animals were included in the analysis with their individual averaged Cook’s distance < 1. Dunnett’s comparison was performed at each time point by R program. Significance is denoted at p < 0.05.

Data set [6] concerns GFP. The experiment in a line: cAMP accumulation assay, GFP control.
Protocol: HEK293 cells transiently transfected with Promega’s cAMP response element (CRE/luc2P) and a GPR40 construct were plated (40K cells/well) into 96-well microtiter plates using Dulbecco’s Modified Eagle’s Medium (DMEM) supplemented with 10% FBS, 20 mM HEPES, pH 7.4, 100 U/mL Penicillin, 100 µg/mL Streptomycin, and 800 µg/mL Geneticin. Test compounds were serially diluted three-fold in 100% DMSO and immediately diluted in media. […] EC50 values were calculated using a four-parameter logistic curve fitting equation.
Data set [7] has as its target T3, Human GPR120. Nature of the data set: Human GPR120 binding. The conditions noted are these: Supplementary Table 1.
Data set [8] has as its target hRXRalpha (Homo sapiens, UniProt P19793). Nature of the data set: hRXRalpha binding.
The target in data set [9] is hD1 (Homo sapiens, UniProt P21728). Nature of the data set: hD1 cAMP. The conditions noted are these: read-out: hD1 cAMP Rel EC50. It counts as cell-based.
hD1, sequence (P21728 whole entry): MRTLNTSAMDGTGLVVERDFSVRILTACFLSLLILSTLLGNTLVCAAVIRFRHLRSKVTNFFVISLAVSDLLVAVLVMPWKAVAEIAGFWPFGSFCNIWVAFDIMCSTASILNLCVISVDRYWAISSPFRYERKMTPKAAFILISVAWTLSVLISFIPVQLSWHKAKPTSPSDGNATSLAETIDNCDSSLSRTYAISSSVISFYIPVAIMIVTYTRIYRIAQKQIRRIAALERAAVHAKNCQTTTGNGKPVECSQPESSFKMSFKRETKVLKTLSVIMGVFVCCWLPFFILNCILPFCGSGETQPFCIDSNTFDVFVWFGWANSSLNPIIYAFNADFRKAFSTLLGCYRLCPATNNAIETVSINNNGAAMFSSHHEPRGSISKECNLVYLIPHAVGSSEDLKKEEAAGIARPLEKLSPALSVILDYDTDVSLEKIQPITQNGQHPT
Data set [10] can be described thus: Drug exposure in plasma after oral dose in wild type C57BL/6 mice. It counts as in vivo, mouse. As to conditions: 0.03-10 mpk, Supplementary Fig. 9.
The target of data set [11] is hRORalpha (Homo sapiens, UniProt P35398). The experiment in a line: hRORalpha binding.
hRORalpha, sequence (P35398 whole entry): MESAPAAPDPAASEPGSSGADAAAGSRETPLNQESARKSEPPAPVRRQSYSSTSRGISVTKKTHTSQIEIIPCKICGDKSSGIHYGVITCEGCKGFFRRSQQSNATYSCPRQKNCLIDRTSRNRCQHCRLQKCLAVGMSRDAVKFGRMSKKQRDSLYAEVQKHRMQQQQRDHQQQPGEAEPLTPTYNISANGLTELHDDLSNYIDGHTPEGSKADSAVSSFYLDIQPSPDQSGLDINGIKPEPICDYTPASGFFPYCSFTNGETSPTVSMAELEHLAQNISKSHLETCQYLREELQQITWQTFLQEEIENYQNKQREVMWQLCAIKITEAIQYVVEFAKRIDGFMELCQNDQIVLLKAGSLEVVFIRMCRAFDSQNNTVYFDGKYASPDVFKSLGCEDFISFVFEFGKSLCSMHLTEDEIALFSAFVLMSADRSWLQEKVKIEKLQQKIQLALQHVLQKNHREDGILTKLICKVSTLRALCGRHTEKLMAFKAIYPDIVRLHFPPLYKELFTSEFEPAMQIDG
For data set [12], the target named is hCDK1 (Homo sapiens, UniProt P06493). Nature of the data set: hCDK1 binding.
hCDK1, sequence (P06493 whole entry): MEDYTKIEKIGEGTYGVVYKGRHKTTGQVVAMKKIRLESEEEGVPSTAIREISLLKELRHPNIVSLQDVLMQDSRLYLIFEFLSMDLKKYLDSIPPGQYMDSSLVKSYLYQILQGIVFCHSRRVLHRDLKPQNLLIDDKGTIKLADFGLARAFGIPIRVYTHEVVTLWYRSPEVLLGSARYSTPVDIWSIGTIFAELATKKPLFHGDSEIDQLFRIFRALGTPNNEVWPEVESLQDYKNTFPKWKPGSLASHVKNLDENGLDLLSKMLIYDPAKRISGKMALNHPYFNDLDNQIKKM
hCDK1, sequence (P14635 whole entry partner): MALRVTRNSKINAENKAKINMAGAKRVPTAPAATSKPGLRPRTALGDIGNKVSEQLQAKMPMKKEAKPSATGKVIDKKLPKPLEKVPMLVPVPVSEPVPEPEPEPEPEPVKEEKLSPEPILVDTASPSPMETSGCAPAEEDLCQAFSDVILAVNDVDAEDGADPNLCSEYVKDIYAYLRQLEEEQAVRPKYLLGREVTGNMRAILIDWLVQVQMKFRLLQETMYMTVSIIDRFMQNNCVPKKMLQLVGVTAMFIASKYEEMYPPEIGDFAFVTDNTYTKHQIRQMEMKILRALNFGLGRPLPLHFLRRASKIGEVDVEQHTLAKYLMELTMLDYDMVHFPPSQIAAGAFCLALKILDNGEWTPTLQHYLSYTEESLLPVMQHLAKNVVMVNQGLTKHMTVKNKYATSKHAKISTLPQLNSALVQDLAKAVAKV
Data set [13] concerns the target hCDK2 (Homo sapiens, UniProt P24941). The experiment in a line: hCDK2 binding.
The target in data set [14] is hM1 (Homo sapiens, UniProt P11229). Nature of the data set: hM1 binding. As to conditions: read-out: hM1 binding Rel IC50.
hM1, sequence (P11229 whole entry): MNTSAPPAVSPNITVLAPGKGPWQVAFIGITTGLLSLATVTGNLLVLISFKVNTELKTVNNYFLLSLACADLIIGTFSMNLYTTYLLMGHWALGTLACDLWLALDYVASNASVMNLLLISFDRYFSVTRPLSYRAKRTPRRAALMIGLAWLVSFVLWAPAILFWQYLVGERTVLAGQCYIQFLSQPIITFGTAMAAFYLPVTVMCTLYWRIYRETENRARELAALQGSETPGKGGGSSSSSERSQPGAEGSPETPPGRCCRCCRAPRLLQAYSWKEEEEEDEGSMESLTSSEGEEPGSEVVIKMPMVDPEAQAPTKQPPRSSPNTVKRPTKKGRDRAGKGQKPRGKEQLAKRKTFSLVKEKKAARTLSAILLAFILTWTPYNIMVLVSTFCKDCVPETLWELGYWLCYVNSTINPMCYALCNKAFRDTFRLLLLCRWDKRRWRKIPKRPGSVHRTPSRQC

hRXRalpha, sequence (P19793 whole entry): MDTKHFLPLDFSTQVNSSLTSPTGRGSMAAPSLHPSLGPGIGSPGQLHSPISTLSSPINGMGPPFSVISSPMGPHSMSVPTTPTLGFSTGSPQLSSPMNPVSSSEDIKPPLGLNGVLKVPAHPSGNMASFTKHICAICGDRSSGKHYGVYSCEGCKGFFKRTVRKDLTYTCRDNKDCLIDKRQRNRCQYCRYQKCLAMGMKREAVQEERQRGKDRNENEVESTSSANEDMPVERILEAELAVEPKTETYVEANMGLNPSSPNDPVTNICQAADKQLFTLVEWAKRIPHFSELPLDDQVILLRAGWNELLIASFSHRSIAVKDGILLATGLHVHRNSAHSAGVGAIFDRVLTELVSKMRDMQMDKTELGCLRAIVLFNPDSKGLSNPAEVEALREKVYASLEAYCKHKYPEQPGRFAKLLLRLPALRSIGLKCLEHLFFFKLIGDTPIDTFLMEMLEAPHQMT

In the case of `Cc1cc(OCCCS(C)(=O)=O)cc(C)c1-c1cccc(COc2ccc3c(c2)OC[C@H]3CC(=O)O)c1` [TAK-875], the inhibition constant Ki in data set [1] is more than 10 µM; in [4], more than 10 µM; in [7] it was more than 100 µM. The EC50 in data set [2] and in data set [3] was more than 50 µM in each case. Also, the “glucose in OGTT” value in data set [5] (30 and 60 mg kg-1) is recorded as “Decreases in glucose”. Further, the “cAMP accumulation EC50, GFP” value in data set [6] (GFP control, Fig. 6c,d) is “no fit”.
For the molecule `COc1ccc(C(=O)N(CC(C)(C)C)c2cccc(C)n2)c(N2CCC(c3cc4ccc([C@@H](CC(=O)O)C5CC5)cc4o3)CC2)c1` [compound 1], the inhibition constant (Ki) is more than 10 µM in data set [8]; more than 10 µM in data set [1]; more than 20 µM in data set [11]; more than 10 µM in data set [4]; more than 100 µM in [7]. Further, the EC50 in [9] was more than 80 µM; in data set [2], more than 50 µM; in data set [3], more than 50 µM; in data set [6] (Homo sapiens, read-out: cAMP accumulation EC50, GFP), more than 30 µM. Also, the “pharmacokinetics in mouse (drug exposures in plasma)” value in data set [10] is listed as “dose proportional”. For the same molecule, the IC50 in data set [12] is more than 20 µM; in data set [13] it was more than 20 µM; in data set [14], more than 10 µM. In data set [5] (various oral doses), the “glucose excursion in OGTT” value is reported as “Dose dependent decreases in glucose excursion”.
